Experimental data published in patent US20070072209A1, “Methods of treatment and diagnosis of Kaposi's sarcoma (KS) and KS related diseases” (priority 2005, published 2007).

Legend:
[1] = tested on: KSHV-infected DMVEC; assay: PMO antisense inhibition of KSHV-induced spindle cell and foci formation (Example 3); assay type: cell-based, human; conditions: for Extent of PMO-induced Inhibition of Spindle Cell Formation: KSHV-infected DMVEC loaded with gene-specific PMO antisense + EPEI; for Phenotype Inhibition (inhibition of spindle cell formation) / KSHV-induced spindle cell / foci formation (in words): KSHV-infected DMVEC; for Phenotype Inhibition (inhibition of spindle cell formation): gene-specific PMO antisense; for KSHV-induced spindle cell / foci formation (in words): PMO antisense, c-Kit: 1.25 nmol PMO + 2.5 μl EPEI per 35 mm dish
Source text: Antisense Gene Silencing using PMOs. […] Silencing of such genes precluded progression into the transformed phenotype when silencing occurred prior to transformation, or induced reversion to the normal state when silencing occurred after induction of the transformed state (see TABLE 2 below).
Introduction of antisense PMO into KSHV-infected DMVEC. Antisense PMO molecules, for delivery purposes, are typically converted to a paired duplex together with a partially complementary cDNA oligonucleotide in the weakly basic delivery reagent ethoxylated polyethylenimine (EPEI) (Summerton, supra). The anionic complex binds to the cell surface, is taken up by endocytosis and eventually released into the cytosol. A protocol for optimum uptake of antisense PMO in immortalized DMVEC was developed using a modification of the EPEI method. Briefly, uninfected, immortalized DMVECs were incubated for 3 hours at 37° C. with 0.6 nmol/well FITC-PMO complexed with EPEI according to the manufacturer's instructions (GeneTools, LLC, One Summerton Way, Philomath, Oreg. 97370) (e.g., 1.25 nMol oligomer with 2.5 μl EPEI reagent per 35 mm dish, allowing for sufficient antisense uptake without non-specific EPEI-induced toxicity). The PMOs were labeled with FITC to allow for monitoring of loading efficiency by fluorescence microscopy.
Specifically, DMVEC were infected with KSHV, plated in 35 mm dishes and allowed to grow to about 90% confluence. For treatment, KSHV-infected cells were treated with the anti-c-Kit PMO-antisense oligomer-EPEI delivery reagent complex and incubated for 3 hours at 37° C. in serum-free medium to allow for oligomer uptake. A titration experiment testing a range of different oligomer/EPEI volumes was used to determine that loading 1.25 nmol oligomer with 2.5 μl EPEI reagent per 35 mm dish allowed efficient antisense uptake without non-specific EPEI-induced toxicity. Control (mock-treated) DMVEC cultures were loaded with EPEI reagent and sterile water or sterile water alone. Upon removal of the oligomer-EPEI solution, cell monolayers were rinsed in serum-free medium fed with complete medium and examined daily for one week by phase microscopy for evidence of phenotypic change.

[2] = tested on: KSHV; assay: Immunofluorescent staining for latent (LANA-1/ORF73) and early lytic (ORF59) viral proteins after PMO-AS; assay type: cell-based; conditions: PMO-AS-treated KSHV-infected DMVEC
Source text: KSHV-infected DMVEC. DMVECs were used as an in vitro model for examining cancerous transformation and viral replication, based, inter alia, on that fact that neoplastic cells in KS tumors are predominantly of vascular origin, whereas KSHV is primarily found in cells of endothelial origin. Specifically, a previously described DMVEC system (Moses et al., J. Virol. 73:6892-6902, 1999) was used for studying infection and transformation by KSHV. Briefly, DMVEC's were immortalized with the E6/E7 genes of human papillomavirus (HPV)-16 prior to infection with KSHV. […] KSHV was obtained from the supernatant of KSHV-infected B-cell lines (e.g., TPA-stimulated BCBL-1 cells). Infection was verified by DNA PCR for amplification of the KS330 BamH1 fragment of the ORF 26 gene, and RT-PCR for the spliced mRNA from the ORF29 gene. The percentage of latently infected cells was determined by immunofluorescent staining for LANA/ORF73. Lytic induction was evaluated with antibodies against an early lytic protein ORF59/PF-8 and a late lytic glycoprotein ORF K8.1A/B. DMVEC were used for experiments when 90% of cells expressed ORF73. In the absence of chemical induction, 2-5% of infected cells expressed ORF59 with approximately 10% of the ORF59-positive cells expressing K8.1A/B. Lytic replication can be induced, however, using phorbol esters such as […] (PMA) providing the ability to look for host genes involved in, or modulated by the lytic cycle as well.
To ascertain whether PMO-AS treatment could be indirectly influencing cell phenotype through an effect on KSHV lytic replication, cells treated with PMO-AS against c-Kit, RDC1 and Neuritin were evaluated by immunofluorescent staining for expression of latent (LANA-1/ORF73) and early lytic (ORF59) viral proteins as previously described (Moses, 1999).

[3] = tested on: KSHV-infected DMVEC; assay: Morpholino treatment and focus inhibition assay (Example 5); assay type: cell-based, human; conditions: for effect on phenotype (foci, spindle shape) in focus-inhibition assay (in words): PMO-AS, KSHV-infected DMVEC, 5-10 days; for Foci/spindle morpholigical inhibition: PMO-treated KSHV-infected DMVEC vs control PMO, repeated three times
Protocol: Morpholino Treatment and Focus Inhibition Assay. Phosphorodiamidate morpholino antisense oligonucleotides (PMO-AS) were designed and synthesized by Gene Tools LLC (Philomath, Oreg.) as a Special Delivery formulation, which pairs the morpholino with a partially complementary DNA oligo. A weakly basic delivery agent, Ethoxylated Polyethlyenimine (EPEI) is then used to deliver the anionic morpholino/DNA duplex into the cytosol. PMO-AS were received as sterile, lyophilized solids ([…]) that were solubilized in sterile water to obtain 0.5 mM stock solutions. To load a 35 mm dish of DMVEC at 90% confluence, 5 microl of stock solution was mixed with 5 microl of EPEI delivery solution in 590 μl H20 for 20 minutes at room temperature, and then mixed with 1.5 ml of serum-free RPMI medium. Endothelial growth media was removed from DMVEC, and replaced with the PMO-AS:EPEI:RPMI delivery solution for 3 hours in a 37° C. incubator. After incubation, cells were rinsed, complete endothelial growth medium was added and cells were cultured for up to 10 days without sub-culture, with media replacement every 48-72 hours. This protocol allows for the characteristic post-confluent growth and development of multi-layered spindle-cell aggregates (foci) in KSHV-infected cultures. Cells were monitored daily under the phase microscope to evaluate PMO-AS-inhibition of the development of these foci. At the conclusion of an assay, cells were fixed in 2% paraformaldehyde and stained with a MAB against CD31 (Dako; 1:100) followed by a goat-anti-mouse FITC second conjugate. Junctional staining of cells with CD31 accentuated the disorganized multi-layered nature of the spindle cell aggregates as composed to the flat, organized profile of contact-inhibited cells.
For these assays, KSHV-infected DMVEC monolayers were cultured to 90% confluence and then loaded with each PMO-AS, or maintained as unloaded controls. Cultures were observed daily until control cultures had developed prominent multi-layered aggregates of spindle cells. Typically this took 5-10 days with some variation between replicate experiments. Each experiment was performed at least three times and was performed with mock-infected as well as KSHV-infected DMVEC. As expected, mock-infected DMVEC maintained a quiescent monolayer at confluence, and PMO-AS treatment of uninfected cells occurred without any adverse effect. This observation allowed verification that none of the gene knockdown treatments induced non-specific toxicity in DMVEC. The majority of tested PMO-AS had no effect on the ability of KSHV-infected DMVEC to grow post-confluence and form disorganized, multi-layered foci (TABLE 2).

## RDC-1: PMO antisense to RDC-1, GAAGAGATGCAGATCCATCGTTCTG (SEQ ID NO:15) (all phosphorodiamidate morpholino (PMO); delivered paired with partially complementary DNA oligo (Special Delivery))
[1]
  Extent of PMO-induced Inhibition of Spindle Cell Formation: full
  Phenotype Inhibition (inhibition of spindle cell formation): full and Full
  KSHV-induced spindle cell / foci formation (in words): fully reversed spindle cell formation
[2]
  expression of ORF73 (latent viral protein): maintained expression of ORF73
[3]
  effect on phenotype (foci, spindle shape) in focus-inhibition assay (in words): dramatic effect on phenotype
  Foci/spindle morpholigical inhibition: Full

## KIT: FITC-labeled PMO targeting the start codon of c-Kit, CGCCTCTCATCGCGGTAGCTGCG (SEQ ID NO:21) (all phosphorodiamidate morpholino (PMO); FITC label attached, position not given here)
[1]
  Extent of PMO-induced Inhibition of Spindle Cell Formation: full
  Phenotype Inhibition (inhibition of spindle cell formation): Full
  KSHV-induced spindle cell / foci formation (in words): fully reversed spindle cell formation
[1]; listed as c-Kit
  KSHV-induced spindle cell / foci formation (in words): did not develop foci
[2]
  expression of ORF73 (latent viral protein): maintained expression of ORF73
[3]
  Foci/spindle morpholigical inhibition: Full

## Neuritin: PMO antisense to Neuritin, TTAACTCCCATCCTACGTTTAGTCA (SEQ ID NO:19) (all phosphorodiamidate morpholino (PMO); delivered paired with partially complementary DNA oligo (Special Delivery))
[1]
  Extent of PMO-induced Inhibition of Spindle Cell Formation: full
  Phenotype Inhibition (inhibition of spindle cell formation): Full
  KSHV-induced spindle cell / foci formation (in words): fully reversed spindle cell formation
[2]
  expression of ORF73 (latent viral protein): maintained expression of ORF73
[3]
  effect on phenotype (foci, spindle shape) in focus-inhibition assay (in words): dramatic effect on phenotype
  Foci/spindle morpholigical inhibition: Full
